Key:
[1] = system: CUL4A^low T47D breast cancer cells; test: Cell killing in CUL4-low T47D cells (CellTiter Glo); format: cell-based; conditions: Homo sapiens, 192 h; T47D cells, 8 days treatment; read-out: EC50 CUL4-Low Cells (cell killing)
Description: EC50 indicates compound concentration can cause 50% cell killing in CUL4° ^w T47D cells (see Table 1, column 7). CUL4A^low T47D breast cancer cells were seeded in 96 well plate. […] Change fresh medium and compounds every 48 hours. After 8 days treatment, cell viability was examined by using CellTiter Glo kit (Promega #7570) following the manufacturer's guidelines (https://www.promega.com/-/media/files/resources/protocols/technical-bulletins/0/celltiter-glo-luminescent-cell-viability-assay-protocol.pdf?rev=0d95c232094b41daa06d0c110d1d916f&sc_lang=en, hereby incorporated by reference in its entirety for all purposes). EC50 concentration was calculated by Prism 8 XY analysis nonlinear regression (curve fit-Log(inhibitor) vs response). EC50 indicates cell killing potential in CUL4 low T47D cell line and the EC50 difference between CUL4^high and CUL4^low cells indicates the small molecule cause specific cell killing.
CUL4A^high MDA-MB-468, CUL4^low (T47D), and MCF7 breast cancer cells were seeded in 96 well plates separately. […] Replace with fresh medium and compounds every 48 hours. After 8 days treatment, cell viability was examined by CellTiter Glo kit (Promega #7570). First, transfer the appropriate volume (10 ml for Cat. #G7570) of CellTiter-Glo® Buffer into the amber bottle containing CellTiter-Glo® Substrate to reconstitute the lyophilized enzyme/substrate mixture. This forms the CellTiter-Glo® Reagent. Second, add CellTiter-Glo® Reagent in an equal volume (100 μl per well for 96-well plates) to all wells. Mix contents for 2 minutes on an orbital shaker to induce cell lysis. Incubate at room temperature for 15 minutes to stabilize luminescent signal. Then record luminescence. EC50 concentration was calculated by Prism 8 XY analysis nonlinear regression (curve fit-Log(inhibitor) vs response).

[2] = system: CUL4A^high MDA-MB-468 breast cancer cells; test: Cell killing in CUL4-high MDA-MB-468 cells (CellTiter Glo); format: cell-based; conditions: Homo sapiens, 192 h; MDA-MB-468 cells, 8 days treatment; read-out: EC50 CUL4-High Cells (cell killing)
Outline: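 Cells seeded, treated after 24 h with DMSO or compound (0 to 20 μM). Medium and compound replaced every 48 h over 8 days. Viability measured by CellTiter-Glo luminescence; EC50 (50% killing) from log(inhibitor) vs response nonlinear fit.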

[3] = Dynamic light scattering (DLS) solubility assay; format: physicochemical; conditions: normalized intensity ratio of 25 μM compound vs DMSO, in PBS
Description: Dynamic light scattering (DLS) (see Table 1, column 3) is a tool for studying the diffusion behavior of macromolecules in solution. To profile compound solubility, DLS assay was developed for measuring aggregation of small molecule compounds. Compound stock solution was prepared in DMSO. Dilution series were made for each compound in DMSO to ensure a final 1× assay concentration range of 200 μM to 0.78 μM. For example, if the final DMSO concentration was 1%, compounds were prepared at 100× concentrations ranging from […] to 78 μM. Dilute compounds in PBS solution to final concentration. Place 60 μl/well in 96 well plates and 3 replicates for each sample. Data were collected using a DynaPro Plate Reader III (WYATT Technologies, Inc., USA). The instrument was adjusted to measure the optimal light scattering intensity according to the manufacturer's instructions. […] The ratio over 2 means (−) insoluble. The ratio below 2 means (+) soluble and around 2 means (+/−).

[4] = system: UV-induced CUL4-dependent DDB2 degradation in MEF-F-DDB2 cells; test: Cell-based assay for inhibition of UV-induced CUL4-dependent DDB2 degradation; parameters: key: (+) means that the normalized DDB2/α-tubulin ratio is higher in the compound treated sample than DMSO treated sample; (−) means that no change happens between compound treated sample with control sample; conditions: DDB2/α-tubulin by Western blot
Outline: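 MEF cells expressing Flag-DDB2, in serum-free medium, treated with DMSO or compound, UV-irradiated (254 nm, 0.2 W/m^2), then harvested. Flag-DDB2 measured by western blot against α-tubulin; (+) denotes normalized DDB2/α-tubulin above DMSO, (−) no change.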

[5] = biological target: CUL4A-DDB1-BPB interaction (Homo sapiens (Human), UniProt Q16531); test: AlphaLISA in vitro binding assay, CUL4A and DDB1-BPB binding; conditions: inhibition of CUL4A and DDB1-BPB binding
Sequence of CUL4A-DDB1-BPB interaction (Q16531 403-706): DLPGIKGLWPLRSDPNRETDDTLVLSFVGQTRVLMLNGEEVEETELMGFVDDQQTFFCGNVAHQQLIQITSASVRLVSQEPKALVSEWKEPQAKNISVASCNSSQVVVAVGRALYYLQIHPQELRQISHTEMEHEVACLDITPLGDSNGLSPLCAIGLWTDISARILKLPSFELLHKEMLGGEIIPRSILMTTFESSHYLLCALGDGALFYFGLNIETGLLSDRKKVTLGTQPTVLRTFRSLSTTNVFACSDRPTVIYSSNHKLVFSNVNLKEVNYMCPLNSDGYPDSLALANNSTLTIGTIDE
Outline: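 Compound disruption of CUL4A binding to DDB1-BPB measured by AlphaLISA/AlphaScreen bead proximity in 384-well format. IC50 from nonlinear log(inhibitor)-vs-response curve fit.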

[6] = biological target: T1, DDB1-BPB (Homo sapiens (Human), UniProt Q16531); test: Microscale Thermophoresis (MST) binding to DDB1-BPB; conditions: labeled DDB1-BPB, 25° C.
T1 sequence (Q16531 403-706): as above
Description: Kd represents dissociation constant, which measures the affinity of small molecule binding to the scaffold DDB1-BPB by Microscale Thermophoresis (MST) (see Table 1, column 9). MST experiments were performed on a Monolith NT 115 system (Nano Temper Technologies, Munich, Germany) using 100% LED and 60% IR-laser power (https://physiology.case.edu/media/eq manuals/eq_manual_nano-temper_mst_starting_guide.pdf, hereby incorporated by reference in its entirety for all purposes). The labeling of DDB1-BPB ([…]) was performed in labeling buffer with NHS-Red reactive dye (30 μM) (Nanotemper), which reacts efficiently with the primary amines of the proteins to form a stable dye protein conjugates. The labeling reaction was carried out at RT. A 16-point serial dilution (1:1) was prepared for compound at the final concentration ranged from 200 µM to 3 nM in PBS containing 0.05% tween. The samples were filled into Premium capillaries and measurements were conducted at 25° C. An equation implemented by the software MO-S002 MO Affinity Analysis, provided by the manufacturer, was used for fitting normalized fluorescence values at different concentrations of ligands.

[7] = biological target: T1, DDB1-BPB; test: Surface Plasmon Resonance (SPR) binding to DDB1-BPB; conditions: DDB1-BPB immobilized
Description: Kd represents dissociation constant, which measures the affinity of small molecule binding to the scaffold DDB1-BPB by Surface Plasmon Resonance (SPR) (https://www.bio-rad.com/webroot/web/pdf/lsr/literature/Bulletin_6414.pdf, hereby incorporated by reference in its entirety) (see Table 1, column 8). To assess the interaction between DDB1-BPB and compounds, a multi-parametric SPR instrument (BioRad ProteON XPR360) was used. DDB1-BPB was immobilized onto the GLH sensor surface in a variety of ways as follows: flow channels were activated in parallel with 1/20 diluted EDC/SNHS. DDB1-BPB was diluted to 0.1 mg/mL in sodium acetate pH 4.5 and directly coupled onto channel for 4 min. Excess reactive esters were blocked with a 5-min injection of 1 M ethanolamine. Mean immobilization levels were 17,000 RU with <2% variation along a strip. One channel was left unmodified to provide an additional reference surface. Next, the binding kinetics of compounds on surfaces was determined in a single injection using a “one-shot” kinetic mode. Typically, compound was prepared as a twofold serial dilution (0, 3.125, 6.25, 12.5, 25, 50 μM) and injected for 60 s at […]. Dissociation was monitored for 800 s. Surfaces were regenerated with multiple 30-s pulses of 60 mM phosphoric acid so that the experiment could be reproduced. All resulting sensor grams were collected and analyzed using the ProteOn manager software.

Row | Compound | EC50 [1] [µM] | EC50 [2] [µM] | Solubility (DLS Assay) [3] | Degradation Inhibition (inhibition of UV-induced DDB2 degradation) [4] | IC50 [5] [µM] | Kd [6] [µM] | AlphaLisa IC50 [5] | Kd (MST) [6] | Kd [7] [µM]
1 | Cc1ccc(S(=O)(=O)N(C)c2ccc(-c3nc(C(=O)O)cc4c3[nH]c3ccc(F)cc34)cc2)cc1 [PA2-1, 6-fluoro-1-[4-[methyl-(p-tolylsulfonyl)amino]phenyl]-9H-pyrido[3,4-b]indole-3-carboxylic acid] | > 100 | 9.32 | -(insoluble) | − | 0.3 |  |  |  | 
2 | COc1ccc(S(=O)(=O)N(C)c2ccc(-c3nc(C(=O)O)cc4c3[nH]c3ccc(F)cc34)cc2)cc1 [PA2-2, 6-fluoro-1-[4-[(4-methoxyphenyl)-sulfonyl-methyl-amino]phenyl]-9H-pyrido[3,4-b]indole-3-carboxylic acid] | > 100 | 8.45 | -(insoluble) | − | 0.89 |  |  |  | 
3 | CN(c1ccc(-c2nc(C(=O)O)cc3c2[nH]c2ccc(F)cc23)cc1)S(=O)(=O)c1ccc(F)cc1 [PA2-3, 6-fluoro-1-[4-[(4-fluorophenyl)sulfonyl-methyl-amino]phenyl]-9H-pyrido[3,4-b]indole-3-carboxylic acid] | > 100 | 13.3 | -(insoluble) | − | 0.48 |  |  |  | 
4 | CN(c1ccc(-c2nc(C(=O)O)cc3c2[nH]c2ccc(F)cc23)cc1)S(=O)(=O)c1cccnc1 [PA2-6, 6-fluoro-1-(4-(N-methylpyridine-3-sulfonamido)phenyl)-9H-pyrido[3,4-b]indole-3-carboxylic acid] | > 100 | 22.3 | -(insoluble) | − | 0.47 | 25.5 |  |  | 
5 | COC(=O)c1cc2c([nH]c3ccccc32)c(-c2ccc(S(C)(=O)=O)cc2)n1 [PA54] | > 100 | > 100 | -(insoluble) | + |  |  | Neg |  | 
6 | COC(=O)c1cc2c([nH]c3ccccc32)c(-c2ccc(NCc3ccc(F)cc3)cc2)n1 [PA57, methyl 1-[4-[(4-fluorophenyl)methylamino]phenyl]-9H-pyrido[3,4-b]indole-3-carboxylate] | 1.6 | 1.08 | -(insoluble) |  |  |  | Neg | Insoluble | 
7 | COC(=O)c1cc2c([nH]c3ccccc32)c(-c2ccc(SCc3ccccc3)cc2)n1 [PA64, methyl 1-(4-benzylsulfanylphenyl)-9H-pyrido[3,4-b]indole-3-carboxylate] | > 20 | 22.8 |  |  |  |  | Neg | Insoluble | 
8 | O=C(O)c1cc2c([nH]c3ccccc32)c(-c2ccc(SCc3ccccc3)cc2)n1 [PA66, 1-(4-benzylsulfanylphenyl)-9H-pyrido[3,4-b]indole-3-carboxylic acid] | 4 | 4.41 |  |  | 5.99 ± 0.43 | 59.6 |  |  | 
9 | Cc1ccc2[nH]c3c(-c4ccc(S(C)(=O)=O)cc4)nc(C(=O)O)cc3c2c1 [PA72] |  |  | +/− | − | 0.78 ± 0.02 |  |  |  | 4.57
10 | COC(=O)c1cc2c([nH]c3ccc(F)cc32)c(-c2ccc(N(C)S(=O)(=O)c3ccccc3)cc2)n1 [PA93-1] | > 100 | 21.8 | -(insoluble) | − |  |  | Neg |  | 
11 | COC(=O)c1cc2c([nH]c3cccc(F)c32)c(-c2ccc(N(C)S(=O)(=O)c3ccccc3)cc2)n1 [PA99-1, methyl 5-fluoro-1-(4-(N-methylphenylsulfonamido)phenyl)-9H-pyrido[3,4-b]indole-3-carboxylate] | > 100 | 3.47 | -(insoluble) | + |  | 321 | Neg |  | 
12 | Cc1ccc2c(c1)[nH]c1c(-c3ccc(N(C)S(=O)(=O)c4ccccc4)cc3)nc(C(=O)O)cc12 [PA106, 1-[4-[benzenesulfonyl(methyl)amino]phenyl]-7-methyl-9H-pyrido[3,4-b]indole-3-carboxylic acid] | > 100 | 7.98 | +/− |  | 7.73 | 443 |  |  | 
13 | CN(c1ccc(-c2nc(C(=O)O)cc3c2[nH]c2cc(-c4ccccc4)ccc23)cc1)S(=O)(=O)c1ccccc1 [PA115, 1-[4-[benzenesulfonyl(methyl)amino]phenyl]-7-phenyl-9H-pyrido[3,4-b]indole-3-carboxylic acid] | 3.86 | 2.15 | -(insoluble) |  | 17.4 ± 7.42 | 257 |  |  | 
14 | CN(c1ccc(-c2nc(C(=O)O)cc3c2[nH]c2cc(Br)ccc23)cc1)S(=O)(=O)c1ccccc1 [PA117, 1-[4-[benzenesulfonyl(methyl)amino]phenyl]-7-bromo-9H-pyrido[3,4-b]indole-3-carboxylic acid] | 5.48 | 3.42 |  |  | 2.5 | 25.4 |  |  | 
